Test results: patent publication US10760052B2, “Method of inhibiting tau phosphorylation” (priority 2012, dated 2020)
Read-outs that look alike come from different tables or passages of the source.

Biological target: T1, mu opiate receptor (MOR) (Rattus norvegicus, UniProt P33535)
T1 construct: from tissue; host or cells: striatum (membrane preparation)
Format: biochemical
Conditions: for [35S]GTPγS binding, FLNA-Binding Compound as Agonist at 0.1 μM: 0.1 μM compound; for [35S]GTPγS binding, FLNA-Binding Compound as Agonist at 0.1 μM / [35S]GTPγS binding, FLNA-Binding Compound as Agonist at 1 μM: striatal membranes; for [35S]GTPγS binding, FLNA-Binding Compound as Agonist at 0.1 μM / [35S]GTPγS binding, FLNA-Binding Compound as Agonist at 1 μM + BFNA / [35S]GTPγS binding, FLNA-Binding Compound as Agonist at 1 μM: Series C-2; for [35S]GTPγS binding, FLNA-Binding Compound as Agonist at 1 μM + BFNA: 1 μM compound + 1 μM β-FNA (selective MOR antagonist); for [35S]GTPγS binding, FLNA-Binding Compound as Agonist at 1 μM: 1 μM compound

[1] = [35S]GTPγS binding to Gαo in striatal membranes, compound 0.1 μM
[2] = [35S]GTPγS binding to Gαo in striatal membranes, compound 1 μM
[3] = [35S]GTPγS binding to Gαo in striatal membranes, compound 1 μM plus 1 μM β-funaltrexamine (MOR antagonist)

T1 sequence (P33535 whole entry): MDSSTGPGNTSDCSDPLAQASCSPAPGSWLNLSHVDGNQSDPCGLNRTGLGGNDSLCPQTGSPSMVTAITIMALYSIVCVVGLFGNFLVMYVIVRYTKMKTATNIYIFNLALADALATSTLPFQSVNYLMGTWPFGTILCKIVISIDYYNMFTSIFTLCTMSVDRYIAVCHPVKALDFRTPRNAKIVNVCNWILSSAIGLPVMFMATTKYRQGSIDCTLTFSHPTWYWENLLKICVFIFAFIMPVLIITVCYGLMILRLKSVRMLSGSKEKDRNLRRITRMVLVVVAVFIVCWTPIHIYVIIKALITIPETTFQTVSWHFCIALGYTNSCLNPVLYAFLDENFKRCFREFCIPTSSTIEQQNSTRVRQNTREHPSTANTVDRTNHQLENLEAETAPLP

SMILES	% DAMGO (0.1 μM) [%]	% DAMGO (1 μM) [%]	% DAMGO + BFNA [%]	Concentration of FLNA-Binding Compound as Agonist 0.1 μM [1] [%]	Concentration of FLNA-Binding Compound as Agonist 1 μM [2] [%]	Concentration of FLNA-Binding Compound as Agonist 1 μM + BFNA [3] [%]	[35S]GTPγS binding, FLNA-Binding Compound as Agonist at 0.1 μM [%]	[35S]GTPγS binding, FLNA-Binding Compound as Agonist at 1 μM + BFNA [%]	[35S]GTPγS binding, FLNA-Binding Compound as Agonist at 1 μM [%]	Concentration of FLNA-Binding Compound as Agonist 0.1 μM [%]	Concentration of FLNA-Binding Compound as Agonist 1 μM [%]	Concentration of FLNA-Binding Compound as Agonist 1 μM + BFNA [%]
O=S(=O)(c1ccccc1)N1CCC2(CC1)OCCN2S(=O)(=O)c1ccccc1 [Compound C0016]	100.4	83.3	150.9	172.7	230.5	96.7						
COc1ccc(C(=O)N2CCC3(CC2)OCCN3C(=O)c2ccc(OC)cc2)cc1 [Compound C0017]	87.1	109.7	143.2	153.8	284.5	94.1						
COc1ccc(C(=O)N2CCC3(CC2)OCCN3S(=O)(=O)c2ccc(OC)cc2)cc1 [Compound C0018]	110.7	95.5	162.1	195.5	247.7	106.5						
COc1ccc(C(=O)N2CCOC23CCN(S(=O)(=O)c2ccc(OC)cc2)CC3)cc1 [Compound C0019]	59.1	68.1	80.4	104.4	176.6	52.8						
O=C(O)c1ccc(C(=O)N2CCC3(CC2)OCCN3S(=O)(=O)c2ccc(C(=O)O)cc2)cc1 [Compound C0021]	94.5	87.8	546.4	159.7	192.0	90.7						
O=C(c1ccc([N+](=O)[O-])cc1)N1CCC2(CC1)OCCN2S(=O)(=O)c1ccc([N+](=O)[O-])cc1 [Compound C0022]	113.5	123.2	25.7	194.3	328.7	13.4						
Nc1ccc(C(=O)N2CCC3(CC2)OCCN3S(=O)(=O)c2ccc(N)cc2)cc1 [Compound C0023]	89.5	87.6	44.5	153.2	233.7	23.2						
CNc1ccc(S(=O)(=O)N2CCC3(CC2)OCCN3S(=O)(=O)c2ccc(NC)cc2)cc1 [Compound C0024]	92.8	84.1	135.1	178.4	229.6	59.3						
O=S(=O)(c1ccc(Br)cc1)N1CCC2(CC1)OCCN2S(=O)(=O)c1ccc(Br)cc1 [Compound C0025]	122.6	117.5	182.7	235.7	320.7	80.2						
COc1ccc(S(=O)(=O)N2CCC3(CC2)NCCO3)cc1 [Compound C0026]	107.7	105.6	48.3				207.2	21.2	288.4			
COc1ccc(S(=O)(=O)N2CCOC23CCNCC3)cc1 [Compound C0027]	121.3	115.0	164.5				233.2	72.2	313.9			
COC(=O)c1ccc(S(=O)(=O)N2CCC3(CC2)OCCN3S(=O)(=O)c2ccc(C(=O)OC)cc2)cc1 [Compound C0028]	55.6	60.5	472.3	93.9	132.4	78.4						
O=S(=O)(c1ccc(F)cc1)N1CCC2(CC1)OCCN2S(=O)(=O)c1ccc(F)cc1 [Compound C0029]	91.2	113.1	37.8	175.4	308.8	16.6						
CCCCc1ccc(S(=O)(=O)N2CCC3(CC2)OCCN3S(=O)(=O)c2ccc(CCCC)cc2)cc1 [Compound C0030]	96.0	98.0	291.4	150.3	226.8	95.0						
O=C(c1ccc([N+](=O)[O-])cc1)N1CCC2(CC1)OCCN2C(=O)c1ccc([N+](=O)[O-])cc1 [Compound C0032]	92.8	87.3	248.2	145.4	202.0	80.9						
O=C(c1ccc([N+](=O)[O-])cc1)N1CCC2(CC1)OCCN2S(=O)(=O)c1ccc([N+](=O)[O-])cc1 [Compound C0033]	85.9	80.6	235.0	134.5	186.4	76.6						
NS(=O)(=O)c1ccc(S(=O)(=O)N2CCC3(CC2)OCCN3S(=O)(=O)c2ccc(S(N)(=O)=O)cc2)cc1 [Compound C0034]	61.3	76.7	482.5							103.6	167.9	80.1
O=[N+]([O-])c1ccc(S(=O)(=O)N2CCC3(CC2)NCCO3)cc1 [Compound C0040]	93.1	133.2	277.3				145.8	90.4	308.3			
COc1ccc(NC(=O)N2CCC3(CC2)OCCN3S(=O)(=O)c2ccc(OC)cc2)cc1 [Compound C0041]	110.1	111.7	575.3	186.1	244.4	95.5						
O=C(OCc1ccccc1)c1ccc(S(=O)(=O)N2CCC3(CC2)OCCN3S(=O)(=O)c2ccc(C(=O)OCc3ccccc3)cc2)cc1 [Compound C0042]	98.9	119.2	666.3	167.1	260.9	110.6						
COc1ccc(S(=O)(=O)N2CCOC23CCN(C(=O)OC(C)(C)C)CC3)cc1 [Compound C0043]	103.8	110.9	501.8				175.4	83.3	242.6			
O=[N+]([O-])c1ccc(S(=O)(=O)N2CCC3(CC2)NCCS3)cc1 [Compound C0044]	102.8	128.0	356.0				173.7	59.1	280.1			
